{
  "source": "patent US20080241234A1",
  "about": "“PHARMACEUTICAL FORMULATIONS OF AN ANHYDRATE CRYSTAL FORM OF 2-(3-FLUORO-4-HYDROXYPHENYL)-7-VINYL-1,3-BENZOXAZOL-5-OL” (WYETH, priority 2006, published 2008)",
  "experiment": "Crystal form conversion on suspending and stirring in a solvent at room temperature",
  "assay_type": "physicochemical",
  "excerpt": "The anhydrate crystal form (Form E) can be converted to other crystal forms under suitable conditions. […] 6, 2006).",
  "data": [
    {"smiles": "C=Cc1cc(O)cc2nc(-c3ccc(O)c(F)c3)oc12", "note": "[Form E, 2-(3-fluoro-4-hydroxyphenyl)-7-vinyl-1,3-benzoxazol-5-ol]", "values": [
      {"measurement": "crystal form obtained after suspension and stirring in ethanol or acetone", "setting": "suspended and stirred in ethanol or acetone at room temperature for seven days", "value": "another anhydrate crystal form is obtained"},
      {"measurement": "crystal form obtained after suspension and stirring in water", "setting": "suspended and stirred in water at room temperature for seven days", "value": "converted to a hydrate crystal form"}
    ]}
  ]
}
